This note sets out measurements from patent US12534456B2, “Heterocyclyl pyridines as novel fungicides” (Bayer Aktiengesellschaft, priority 2020, dated 2026).

In general, chromatographic logP refers to a lipophilicity value derived from retention on a column. Low readings indicate lower lipophilicity, high ones higher lipophilicity. As usually defined, the inhibition is the percentage by which the read-out fell short of the control.

A short description of series [1]: physchem. As to conditions: Table 1, compounds of formula (I); method [a]: LC-UV, acidic range, 0.1% formic acid in water and acetonitrile. It counts as physicochemical. On the procedure: Measurement of Log P values as provided herein was performed according to EEC directive 79/831 Annex V.A8 by HPLC (High Performance Liquid Chromatography) on reversed phase columns with the following methods: • ^[a]
If more than one Log P value is available within the same method, all the values are given and separated by “+”.
Lambda-max-values were determined using UV-spectra from 200 nm to 400 nm and the peak values of the chromatographic signals

Series [2] concerns Alternaria alternata. Briefly: Alternaria alternata in vitro cell test. It counts as cell-based. As to conditions: 120 h, 20 ppm of active ingredient, liquid culture with spores, 5 days incubation, spectrometric measurement of mycelium growth, read-out: efficacy (inhibition of fungal growth). On the procedure:
(§1) B-5. Alternaria alternata In Vitro Cell Test • Solvent: DMSO • Culture medium: 14.6 g anhydrous D-glucose (VWR), 7.1 g Mycological Peptone (Oxoid), 1.4 g granulated Yeast Extract (Merck), QSP 1 liter • Inoculum: spores suspension • Fungicides were solubilized in DMSO and the solution used to prepare the required range of concentrations. […] A spore suspension of A. alternata was prepared and diluted to the desired spore density. Fungicides were evaluated for their ability to inhibit spore germination and mycelium growth in liquid culture assay. The compounds were added in the desired concentration to the culture medium with spores. After 5 days incubation, fungi-toxicity of compounds was determined by spectrometric measurement of mycelium growth. Inhibition of fungal growth was determined by comparing the absorbance values in wells containing the fungicides with the absorbance in control wells without fungicides.

Series [3] deals with Pyricularia oryzae. Briefly: microbe, parasite or virus in culture. The settings on record: 120 h, read-out: efficacy (inhibition of fungal growth). It counts as cell-based.
Series [4] concerns Colletotrichum lindemuthianum. Kind of series: Colletotrichum lindemuthianum in vitro cell test. As to conditions: 144 h, 20 ppm of active ingredient, liquid culture with spores, 6 days incubation, spectrometric measurement of mycelium growth, read-out: efficacy (inhibition of fungal growth). The format is cell-based. On the procedure: as §1, with “B-7. Colletotrichum lindemuthianum In” for “B-5. Alternaria alternata In”, “of C. lindemuthianum” for “of A. alternata”, “inhibit spores” for “inhibit spore”, “After 6” for “After 5”

Series [5] has as its system Fusarium culmorum. Kind of series: Fusarium culmorum in vitro cell test. The format is cell-based. The settings on record: 96 h, read-out: efficacy (inhibition of fungal growth). As for the experimental part: B-9. Fusarium culmorum In Vitro Cell Test
• Solvent: DMSO • Culture medium: 14.6 g anhydrous D-glucose (VWR), 7.1 g Mycological Peptone (Oxoid), 1.4 g granulated Yeast Extract (Merck), QSP 1 liter • Inoculum: spore suspension
Fungicides were solubilized in DMSO and the solution used to prepare the required range of concentrations. The final concentration of DMSO used in the assay was ≤1%.
A spore suspension of F. culmorum was prepared and diluted to the desired spore density.
Fungicides were evaluated for their ability to inhibit spore germination and mycelium growth in liquid culture assay. The compounds were added in the desired concentration to the culture medium with spores. After 4 days incubation, fungi-toxicity of compounds was determined by spectrometric measurement of mycelium growth. Inhibition of fungal growth was determined by comparing the absorbance values in wells containing the fungicides with the absorbance in control wells without fungicides.

The test system of series [6] is Septoria tritici. Kind of series: Septoria tritici in vitro cell test. The settings on record: Zymoseptoria tritici, 168 h; 20 ppm of active ingredient; liquid culture with spores, 7 days incubation, spectrometric measurement of mycelium growth; read-out: efficacy (inhibition of fungal growth). The format is cell-based. On the procedure:
B-8. Septoria tritici In Vitro Cell Test • Solvent: DMSO • Culture medium: 1 g KH2PO4 (VWR), 1 g K2HPO4 (VWR), 0.5 g Urea (VWR), 3 g KNO3 (Prolabo), 10 g saccharose (VWR), 0.5 g MgSO4, 7H2O (Sigma), 0.07 g CaCl2, 2H2O (Prolabo), 0.2 mg MnSO4, H2O (Sigma), 0.6 mg CuSO4, 5H2O (Sigma), 7.9 mg ZnSO4, 7H2O (Sigma), 0.1 mg H3BO3 (Merck), 0.14 mg NaMoO4, 2H2O (Sigma), 2 mg thiamine (Sigma), 0.1 mg biotine (VWR), 4 mg FeSO4, 7H2O (Sigma), QSP 1 liter • Inoculum: spore suspension Fungicides were solubilized in DMSO and the solution used to prepare the required range of concentrations. […] A spore suspension of S. tritici was prepared and diluted to the desired spore density. Fungicides were evaluated for their ability to inhibit spore germination and mycelium growth in liquid culture assay. The compounds were added in the desired concentration to the culture medium with spores. […] Inhibition of fungal growth was determined by comparing the absorbance values in wells containing the fungicides with the absorbance in control wells without fungicides.

The mark [7] stands for this setting: 20 ppm of active ingredient, liquid culture with spores, 4 days incubation, spectrometric measurement of mycelium growth.

Like-named read-outs stand apart in the source and are kept apart here.

In series [1], `Cc1ccc(CC2CON=C(c3cc(Cl)ncc3Oc3cccc(C(F)(F)F)c3)N2)c(C)c1` (racemic) [Compound I-001, (5RS)-3-{2-chloro-5-[3-(trifluoromethyl)phenoxy]pyridin-4-yl}-5-(2,4-dimethylbenzyl)-5,6-dihydro-4H-1,2,4-oxadiazine] returned a chromatographic logP of 4.56. Besides, the inhibition at 20 ppm in series [2], in series [3], in series [4] and in series [5] was 90 to 100% throughout.

As for `Cc1cc(C2=NOCC(Cc3ccc(Cl)cc3Cl)N2)c(Oc2cccc(C3CC3)c2F)cn1` (racemic) [Compound I-029, (5RS)-3-[5-(3-cyclopropyl-2-fluorophenoxy)-2-methylpyridin-4-yl]-5-(2,4-dichlorobenzyl)-5,6-dihydro-4H-1,2,4-oxadiazine], the chromatographic logP in series [1] was 4.23. The inhibition at 20 ppm in series [2], in series [3], in series [4], in series [6] and in series [5] was 90 to 100% each time.

In series [1], `Cc1ccc(CC2CON=C(c3cc(C(F)(F)F)ncc3Oc3cccc(C(F)(F)F)c3)N2)c(C)c1` (racemic) [Compound I-034, (5RS)-5-(2,4-dimethylbenzyl)-3-{2-(trifluoromethyl)-5-[3-(trifluoromethyl)phenoxy]pyridin-4-yl}-5,6-dihydro-4H-1,2,4-oxadiazine] displayed a chromatographic logP of 4.89. Further, the inhibition at 20 ppm in series [2] is 90 to 100%; in series [3], 90 to 100%; in series [4], 90 to 100%; in series [6] it was 90 to 100%; in series [5] (setting [7]), 70 to 79%.

With `Cc1ccc(CC2CON=C(c3ccncc3Oc3cccc(C(F)(F)F)c3)N2)cc1` (racemic) [Compound I-039, (5RS)-5-(4-methylbenzyl)-3-{3-[3-(trifluoromethyl)phenoxy]pyridin-4-yl}-5,6-dihydro-4H-1,2,4-oxadiazine], the chromatographic logP in series [1] worked out at 3.47. Also, the inhibition at 20 ppm in series [2] lay in the range of 90 to 100%; in series [4], 90 to 100%; in series [6] it was 80 to 89%; in series [5], 90 to 100%.

Take `FC(F)c1cccc(Oc2cnc(Cl)cc2C2=NOC[C@@H](Cc3ccc([C@H]4CCOC4)cc3Cl)N2)c1` (racemic) [Compound I-041, (5RS)-3-{2-chloro-5-[3-(difluoromethyl)phenoxy]pyridin-4-yl}-5-{2-chloro-4-[(3RS)-tetrahydrofuran-3-yl]benzyl}-5,6-dihydro-4H-1,2,4-oxadiazine]: in series [1], the chromatographic logP was determined as 3.81. For the same compound, the inhibition at 20 ppm in series [2] was in the range of 90 to 100%; in series [3], 80 to 89%; in series [4], 90 to 100%; in series [6] it was 70 to 79%.

In turn, `COc1ccc(C2NC(c3cc(Cl)ncc3Oc3cccc(C(F)(F)F)c3)=NOC2(F)F)cc1` (racemic) [Compound I-047, (5RS)-3-{2-chloro-5-[3-(trifluoromethyl)phenoxy]pyridin-4-yl}-6,6-difluoro-5-(4-methoxyphenyl)-5,6-dihydro-4H-1,2,4-oxadiazine] returned a chromatographic logP in series [1] of 4.14. Also, the inhibition at 20 ppm in series [2] lay in the range of 90 to 100%; in series [3], 90 to 100%; in series [4], 90 to 100%; in series [6], 90 to 100%; in series [5] (setting [7]), 80 to 89%.

`Cc1ccc(CC2CON=C(c3cc(N4CCCC4)ncc3Oc3cccc(C(F)(F)F)c3)N2)cc1` (racemic) [Compound I-056, (5RS)-5-(4-methylbenzyl)-3-{2-(pyrrolidin-1-yl)-5-[3-(trifluoromethyl)phenoxy]pyridin-4-yl}-5,6-dihydro-4H-1,2,4-oxadiazine] displayed a chromatographic logP in series [1] of 3.5. The values for the inhibition at 20 ppm in series [2], in series [3] and in series [4] were 90 to 100%, 80 to 89% and 90 to 100%, respectively.

Turning to `Cc1ccc(C[C@@H]2CON=C(c3cc([C@@H]4CCOC4)ncc3Oc3cccc(C(F)(F)F)c3)N2)cc1` (racemic) [Compound I-058, (5RS)-5-(4-methylbenzyl)-3-{2-[(3SR)-tetrahydrofuran-3-yl]-5-[3-(trifluoromethyl)phenoxy]pyridin-4-yl}-5,6-dihydro-4H-1,2,4-oxadiazine], the chromatographic logP in series [1] was 3.78. Besides, the inhibition at 20 ppm in series [2], in series [3], in series [4], in series [6] and in series [5] was 90 to 100% in each case.

With `Cc1ccc(CC2CCN=C(c3cc(Cl)ncc3Oc3cccc(C(F)(F)F)c3)N2)c(C)c1` (racemic) [Compound I-088, rac-(6R)-2-[2-chloro-5-[3-(trifluoromethyl)phenoxy]-4-pyridyl]-6-[(2,4-dimethylphenyl)methyl]-1,4,5,6-tetrahydropyrimidine], the chromatographic logP in series [1] was found to be 2.62. The inhibition at 20 ppm in series [2] was in the range of 80 to 89%; in series [4], 70 to 79%.

As to `Cc1ccc(C2CON=C(c3cc(Cl)ncc3Oc3cccc(C(F)(F)F)c3)N2)s1` (racemic) [Compound I-097, rac-(5S)-3-[2-chloro-5-[3-(trifluoromethyl)phenoxy]-4-pyridyl]-5-(5-methyl-2-thienyl)-5,6-dihydro-4H-1,2,4-oxadiazine], the chromatographic logP in series [1] was determined as 3.87. Further, the inhibition at 20 ppm in series [2] lay in the range of 90 to 100%; in series [3], 70 to 79%; in series [4], 90 to 100%; in series [6], 90 to 100%; in series [5], 90 to 100%.

Take `Cc1ccc(CC2CC(=O)N=C(c3cc(Cl)ncc3Oc3cccc(C(F)(F)F)c3)N2)c(C)c1` (racemic) [Compound I-098, rac-(6R)-2-[2-chloro-5-[3-(trifluoromethyl)phenoxy]-4-pyridyl]-6-[(2,4-dimethylphenyl)methyl]-5,6-dihydro-1H-pyrimidin-4-one]: the chromatographic logP in series [1] amounted to 4.62. For the same compound, the inhibition at 20 ppm is 80 to 89% in series [2] and 90 to 100% in series [4].

With `Cc1cc(C2CC2)ccc1CC1CON=C(c2cc(Cl)ncc2Oc2cccc(C(F)(F)F)c2)N1` (racemic) [Compound I-107, rac-(5R)-3-[2-chloro-5-[3-(trifluoromethyl)phenoxy]-4-pyridyl]-5-[(4-cyclopropyl-2-methyl-phenyl)methyl]-5,6-dihydro-4H-1,2,4-oxadiazine], the chromatographic logP in series [1] was found to be 4.88. The inhibition at 20 ppm lay in the range of 80 to 89% in series [2], 90 to 100% in series [3], 90 to 100% in series [4] and 90 to 100% in series [6].
